How the values were obtained:
[1] = test system: P388 murine leukemia cell lines; assay: In vitro proliferation of P388 cells (MTT); format: cell-based; conditions: 48-h exposure; for IC50: value in parentheses
Description: Discodermolide and discodermolide analogs were analyzed as to their effects on proliferation of A549 human adenocarcinoma and P388 murine leukemia cell lines. P388 cells were obtained from Dr. R. Camalier, National Cancer Institute, Bethesda, MD, and A549 cells were obtained from American Type Culture Collection, Rockville, MD. All cell lines were maintained in tissue culture medium (TCM; Roswell Park Memorial Institute RPMI 1640 supplemented with 100 U/mL penicillin, […], 60 […], 18 mM HEPES, 0.05 mg/mL gentamicin (Life Technologies, Gaithersburg, MD) and 10% fetal bovine serum) and cultured in plastic tissue culture flasks at 37° C. in humidified air containing 5% CO2. Stock cultures of P388 cells were subcultured 1:20 in fresh TCM every 2 to 3 days. Stock cultures of A549 cells were subcultured 1:10 every 3 to 4 days. To assess the antiproliferative effects of agents against the cells, 200 μL cultures (96-well tissue culture plates, Nunc, Denmark) were established at 1 ×10^5 cells/mL in TCM or TCM containing the test agent at 0.03-5.0 μg/mL. After 48-h exposures, P388 cells were enumerated using 3-[4,5-dimethylthiazol-2-yl]-2,5-diphenyltetrazolium bromide (MTT) as described in the literature (M. C. Alley, et al., Cancer Res. 48:589, 1988). A549 cells were enumerated in the same manner after 72 hours exposure. The results were expressed as percent inhibition compared to the negative (no drug) control. Positive drug controls of varying dilutions of 5-fluorouracil and adriamycin (Sigma Chemical Co., St Louis, MO) were included to monitor drug sensitivity of the cell line.
To quantitate the effects on cell proliferation and resulting IC50 values, 75 μL of warm growth media containing 5 mg/mL MTT is added to each well, cultures returned to the incubator, and left undisturbed for 3 hours. To spectrophotometrically quantitate formation of reduced formazan, plates are centrifuged (500×g, 10 minutes), culture fluids removed by aspiration, and 200 μL of acidified isopropanol (2 mL concentrated HCl /liter isopropanol) added per well. The absorbance of the resulting solutions is measured in a plate reader (TECAN Spectra SLT; TECAN U.S., Research Triangle Park, N.C.) at 570 nm and a 650 nm reference filter. The absorbance of test wells is divided by the absorbance of drug-free wells, and the concentration of agent that results in 50% of the absorbance of untreated cultures (IC50) is determined by linear regression of logit-transformed data (D. J. Finney, Statistical Method in Biological Assay, third ed., pp. 316-348, Charles Griffin Co., London, 1978). A linear relationship between tumor cell number and formazan production has been routinely observed over the range of cell densities observed in these experiments. The two standard drug controls (indicated above) are included in each assay as a check to monitor the drug sensitivity of each of the cell lines and IC50 values are determined for each drug-cell combination.

[2] = test system: A549 human adenocarcinoma tumor cells; assay: Microtubule bundling patterns in tumor cells by immunofluorescence; format: cell-based; set-up: key to Microtubule bundling in A549 cells: −: no effect; +/−: minimal or questionable effect; +: weak effect; ++: strong effect; +++: very strong effect equivalent to discodermolide; conditions: for Microtubule bundling in A549 cells: subjective rating versus discodermolide
Description: Discodermolide and discodermolide analogs were evaluated as to their effects on the morphology of the microtubule network of cells using mouse anti-alpha-tubulin monoclonal antibody.
On day one, 7×10^4 adherent A549 human adenocarcinoma tumor cells were cultured in TCM overnight at 37° C. in 5% CO2 on 22 mm^2 cover slips in 6-well microtiter plates. On day two, TCM was removed and replaced with 10-1000 nM discodermolide or analog in TCM or TCM without drug (control) and incubated overnight at 37° C. in 5% CO2. On day three, TCM was removed and cells attached to cover slips were fixed with a 3.7% formaldehyde solution in Dulbecco's PBS for 10 minutes at room temperature. Cells were permeabilized with a 2% Triton X-100 solution, 2 mL per well, for 5 minutes at room temperature and washed twice in Dulbecco's PBS prior to staining.
To each well containing cells attached to cover slips a 2 mL volume of mouse anti- alpha-tubulin monoclonal antibody (Cat# T-5168, Sigma Chemical Co., St. Louis, Mo.) diluted 1:1000 in Dulbecco's phosphate buffered saline (D-PBS) was added and the cells incubated at room temperature for 45 minutes. Cover slips were rinsed once with D-PBS. A 2 mL volume of goat-anti-mouse-IgG-FITC conjugated antibody (Cat# T-5262, Sigma Chemical Co., St. Louis, Mo.) diluted 1:1000 in D-PBS was added and the cells incubated at room temperature for 45 minutes. Cover slips were rinsed once in D-PBS and DNA was stained with 0.02 mg/mL propidium iodide together with 0.1 mg/mL of ribonuclease A (RNAse) A in D-PBS at 37° C. for 30 minutes. Cover slips were rinsed three times with sterile distilled water, air-dried and mounted on slides with SlowFade™ antifade solution (Molecular Probes, Eugene, Oreg.) and observed under the microscope using epifluorescence illumination for the presence of abnormal aster and microtubule bundle formations.

Compound	IC50 P388 cells [1] [µg/mL]	IC50 [1] [µM]	Microtubule bundling observation ([2]; 100 nM)	Microtubule bundling observation ([2]; 1000 nM)	Discodermolide concentration giving equivalent morphological changes ([2]; analog at 100 nM)	Discodermolide concentration giving equivalent morphological changes ([2]; analog at 1000 nM)	Microtubule bundling in A549 cells ([2]; Table 11)	Microtubule bundling observation ([2]; 10 nM)	Microtubule bundling in A549 cells ([2]; Table 12)	Cells with multiple aster formations, share of the population undergoing mitosis ([2]; 100 nM)
C=CC=CC(C)C(OC(N)=O)C(C)C(O)C(C)CC(C)=CC(C)C(O)C(C)C=CC(O)CC1OC(=O)CC(O)C1C (stereo not shown) [2-Desmethyldiscodermolide (II), 2-desmethyldiscodermolide]	0.1	0.172	Some thin or short peripheral microtubule bundling	extensive microtubule bundling	20-50 nM	1000 nM	+++			
CCCCC(C)C(OC(N)=O)C(C)C(O)C(C)CC(C)=CC(C)C(O)C(C)CCCCC1OC(=O)C(C)C(O)C1C (stereo not shown) [7-deoxy-8,21,23-hexahydrodiscodermolide]	0.18	0.309	small amount of microtubule bundling visible in some cells	strong microtubule bundling	~10 nM	100 nM		no visible effect on the microtubule matrix	++	
C=CC=CC(C)C(O)C(C)C(O)C(C)CC(C)=CC(C)C(O)C(C)C=CC(O)CC1OC(=O)C(C)C(O)C1C (stereo not shown) [19-Desaminocarbonyldiscodermolide (III), 19-desaminocarbonyldiscodermolide]	0.07	0.128	some microtubule bundling	moderate amount of microtubule bundling	10-20 nM	50-100 nM	++			
CCCCC(C)C(OC(N)=O)C(C)C(O)C(C)CC(C)=CC(C)C(O)C(C)CCC(O)CC1OC(=O)C(C)C(O)C1C (stereo not shown) [8,21,23-Hexahydrodiscodermolide (XII), 8,21,23-hexahydrodiscodermolide]	0.02	0.0338	Microtubule bundling was evident	Microtubule bundling was evident					++	
C=C/C=C\[C@H](C)[C@H](OC(N)=O)[C@@H](C)[C@H](O)[C@@H](C)C/C(C)=C\[C@H](C)[C@@H](O)[C@@H](C)/C=C\[C@@H](O)C[C@@H]1OC(=O)[C@@H](C)[C@@H](O)[C@H]1C [2-Epidiscodermolide (IV), 2-epidiscodermolide]	0.08	0.134	no microtubule matrix bundling	Some minor, peripheral, polymerization of microtubule matrix		~20 nM	+			less than 10%

Source: US6495594B2, “Biologically active analogs of discodermolide” (Harbor Branch Oceanographic Institution, Inc., priority 2000, dated 2002)
